Measured values as given in patent US10221177B2 (HYDRA BIOSCIENCES, INC., priority 2014, dated 2019).

Biological target: human TRPA1 (Homo sapiens (Human), UniProt O75762)
Experiment: In vitro inhibition of human TRPA1, whole cell patch configuration
Format: cell-based
Conditions: current activation 10 μM AITC, tested concentrations 320 pM to 3.2 μM, read-out: hTRPA1 IC50
Summary of the method: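 Compound antagonism measured from voltage ramps (±100 or ±80 mV, 400 ms, every 4 s from −40 mV), analysed at −80 and 80 mV, or at constant −60 mV. HEPES-buffered NaCl bath, pH 7.4, EGTA or 2 mM Ca2+; temperature set by perfusion, within ±2° C; no junction-potential correction.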

human TRPA1, sequence (O75762 whole entry): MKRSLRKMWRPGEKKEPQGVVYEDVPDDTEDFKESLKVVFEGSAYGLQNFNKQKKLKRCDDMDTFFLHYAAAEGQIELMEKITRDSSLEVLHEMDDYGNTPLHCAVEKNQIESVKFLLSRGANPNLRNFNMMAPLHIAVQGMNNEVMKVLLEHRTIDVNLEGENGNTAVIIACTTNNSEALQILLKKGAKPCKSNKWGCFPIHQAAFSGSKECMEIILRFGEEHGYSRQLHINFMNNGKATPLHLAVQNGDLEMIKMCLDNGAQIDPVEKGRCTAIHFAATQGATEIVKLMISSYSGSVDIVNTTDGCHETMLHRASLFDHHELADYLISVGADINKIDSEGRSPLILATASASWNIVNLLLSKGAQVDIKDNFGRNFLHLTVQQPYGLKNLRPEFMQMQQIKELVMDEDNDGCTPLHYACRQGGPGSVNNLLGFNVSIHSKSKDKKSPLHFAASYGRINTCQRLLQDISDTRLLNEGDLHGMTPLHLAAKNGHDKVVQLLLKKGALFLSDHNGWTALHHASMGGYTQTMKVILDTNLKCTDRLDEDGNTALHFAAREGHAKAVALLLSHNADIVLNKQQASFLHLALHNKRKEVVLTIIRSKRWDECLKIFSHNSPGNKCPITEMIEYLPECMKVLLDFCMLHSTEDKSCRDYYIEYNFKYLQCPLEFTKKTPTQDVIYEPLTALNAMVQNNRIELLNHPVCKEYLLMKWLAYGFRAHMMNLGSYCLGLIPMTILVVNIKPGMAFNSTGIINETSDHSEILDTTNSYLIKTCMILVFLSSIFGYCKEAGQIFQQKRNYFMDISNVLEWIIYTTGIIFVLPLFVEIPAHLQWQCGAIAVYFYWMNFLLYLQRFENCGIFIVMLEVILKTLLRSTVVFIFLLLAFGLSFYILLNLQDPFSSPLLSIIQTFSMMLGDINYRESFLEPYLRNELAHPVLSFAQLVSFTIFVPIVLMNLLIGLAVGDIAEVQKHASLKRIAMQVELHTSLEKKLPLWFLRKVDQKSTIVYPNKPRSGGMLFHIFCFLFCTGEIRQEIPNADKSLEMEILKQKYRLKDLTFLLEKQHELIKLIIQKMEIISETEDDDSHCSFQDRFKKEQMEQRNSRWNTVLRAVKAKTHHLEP

| IC50 | SMILES |
| --- | --- |
| 26 nM | C[C@@H](C(=O)Nc1cncc(-c2cnc(C(F)(F)F)nc2)n1)n1cnc2c1c(=O)n(Cc1ccon1)c(=O)n2C [Compound 120, (S)-2-(1-(isoxazol-3-ylmethyl)-3-methyl-2,6-dioxo-2,3-dihydro-1H-purin-7(6H)-yl)-N-(6-(2-(trifluoromethyl)pyrimidin-5-yl)pyrazin-2-yl)propanamide] |
| 1 nM | COc1ncc(-c2cccc(NC(=O)[C@H](C)n3cnc4c3c(=O)n(Cc3cc(C)on3)c(=O)n4C)n2)cc1C(F)(F)F [Compound 121, (S)—N-(6′-methoxy-5′-(trifluoromethyl)-[2,3′-bipyridin]-6-yl)-2-(3-methyl-1-((5-methylisoxazol-3-yl)methyl)-2,6-dioxo-2,3-dihydro-1H-purin-7(6H)-yl)propanamide] |
| 1 nM | CCOc1ncc(-c2cccc(NC(=O)[C@H](C)n3cnc4c3c(=O)n(Cc3cc(C)on3)c(=O)n4C)n2)cc1C(F)(F)F [Compound 122, (S)—N-(6′-ethoxy-5′-(trifluoromethyl)-[2,3′-bipyridin]-6-yl)-2-(3-methyl-1-((5-methylisoxazol-3-yl)methyl)-2,6-dioxo-2,3-dihydro-1H-purin-7(6H)-yl)propanamide] |
| 2 nM | Cc1cc(Cn2c(=O)c3c(ncn3[C@@H](C)C(=O)Nc3cccc(-c4cnc(Cl)c(C(F)(F)F)c4)n3)n(C)c2=O)no1 [Compound 123, (S)—N-(6′-chloro-5′-(trifluoromethyl)-[2,3′-bipyridin]-6-yl)-2-(3-methyl-1-((5-methylisoxazol-3-yl)methyl)-2,6-dioxo-2,3-dihydro-1H-purin-7(6H)-yl)propanamide] |
| 1 nM | CCC(=O)Cn1c(=O)c2c(ncn2[C@@H](C)C(=O)Nc2cccc(-c3cnc(OC)c(C(F)(F)F)c3)n2)n(C)c1=O [Compound 124, (S)—N-(6′-methoxy-5′-(trifluoromethyl)-[2,3′-bipyridin]-6-yl)-2-(3-methyl-2,6-dioxo-1-(2-oxobutyl)-2,3-dihydro-1H-purin-7(6H)-yl)propanamide] |

More lines, now with the values behind:

| SMILES | IC50 |
| --- | --- |
| Cc1cc(Cn2c(=O)c3c(ncn3[C@@H](C)C(=O)Nc3cccc(-c4cnc(N5CCC[C@H]5C(F)(F)F)nc4)n3)n(C)c2=O)no1 [Compound 115, (S)-2-(3-methyl-1-((5-methylisoxazol-3-yl)methyl)-2,6-dioxo-2,3-dihydro-1H-purin-7(6H)-yl)-N-(6-(2-((S)-2-(trifluoromethyl)pyrrolidin-1-yl)pyrimidin-5-yl)pyridin-2-yl)propanamide] | 1 nM |
| CCC(=O)Cn1c(=O)c2c(ncn2[C@@H](C)C(=O)Nc2cccc(-c3ccc(C(F)(F)F)nc3)n2)n(C)c1=O [Compound 116, (S)-2-(3-methyl-2,6-dioxo-1-(2-oxobutyl)-2,3-dihydro-1H-purin-7(6H)-yl)-N-(6′-(trifluoromethyl)-[2,3′-bipyridin]-6-yl)propanamide] | > 3200 nM |
| C[C@@H](C(=O)Nc1cccc(-c2cnc(C(F)(F)F)nc2)n1)n1cnc2c1c(=O)n(Cc1ccon1)c(=O)n2C [Compound 117, (S)-2-(1-(isoxazol-3-ylmethyl)-3-methyl-2,6-dioxo-2,3-dihydro-1H-purin-7(6H)-yl)-N-(6-(2-(trifluoromethyl)pyrimidin-5-yl)pyridin-2-yl)propanamide] | 18 nM |
| Cc1cc(Cn2c(=O)c3c(ncn3[C@@H](C)C(=O)Nc3cncc(-c4ccc(C(F)(F)F)nc4)n3)n(C)c2=O)no1 [Compound 118, (S)-2-(3-methyl-1-((5-methylisoxazol-3-yl)methyl)-2,6-dioxo-2,3-dihydro-1H-purin-7(6H)-yl)-N-(6-(6-(trifluoromethyl)pyridin-3-yl)pyrazin-2-yl)propanamide] | 17 nM |
| C[C@@H](C(=O)Nc1cncc(-c2ccc(C(F)(F)F)nc2)n1)n1cnc2c1c(=O)n(Cc1ccon1)c(=O)n2C [Compound 119, (S)-2-(1-(isoxazol-3-ylmethyl)-3-methyl-2,6-dioxo-2,3-dihydro-1H-purin-7(6H)-yl)-N-(6-(6-(trifluoromethyl)pyridin-3-yl)pyrazin-2-yl)propanamide] | 28 nM |
